Several values for one entry are separate records, joined by “and”; a condition that tells them apart may be missing. Identical values can stand only once. Inconclusive results and toxic doses are left out. Rule as the data show it: active = T/C of 150% or more; inactive = T/C below 125%.
Tested on: L1210 leukemia ip in BDF1 mice, survival T/C
Experiment: NCI In Vivo Anticancer Drug Screen. Data for tumor model L1210 Leukemia (intraperitoneal) in B6D2F1 (BDF1) mice
Conditions: endpoint: mean survival time, higher = longer survival
Outline: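 Transplanted-tumor mice were given test agent; controls received vehicle only. Survival readings from the two groups were divided (treated over control).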

[1] = dose: 75.0 mg/kg/injection, schedule: Q01DX001 (ip), vehicle: saline
[2] = dose: 150.0 mg/kg/injection, schedule: Q01DX001 (ip), vehicle: saline
[3] = dose: 100.0 mg/kg/injection, schedule: Q01DX001 (ip), vehicle: saline
[4] = dose: 200.0 mg/kg/injection, schedule: Q01DX001 (ip), vehicle: saline
[5] = dose: 400.0 mg/kg/injection, schedule: Q01DX001 (ip), vehicle: saline
[6] = dose: 100.0 mg/kg/injection, schedule: Q04DX003 (ip), vehicle: saline
[7] = dose: 200.0 mg/kg/injection, schedule: Q04DX003 (ip), vehicle: saline
[8] = dose: 400.0 mg/kg/injection, schedule: Q04DX003 (ip), vehicle: saline
[9] = dose: 50.0 mg/kg/injection, schedule: Q01DX009 (ip), vehicle: saline with Tween-80
[10] = dose: 100.0 mg/kg/injection, schedule: Q01DX009 (ip), vehicle: saline with Tween-80
[11] = dose: 200.0 mg/kg/injection, schedule: Q01DX009 (ip), vehicle: saline with Tween-80
[12] = dose: 12.5 mg/kg/injection, schedule: Q04DX003 (ip), vehicle: saline with Tween-80
[13] = dose: 25.0 mg/kg/injection, schedule: Q04DX003 (ip), vehicle: saline with Tween-80
[14] = dose: 50.0 mg/kg/injection, schedule: Q04DX003 (ip), vehicle: saline with Tween-80

Measured: T/C

CCCC(C)NCCOC(=O)Nc1ccccc1 (centres undefined)
inactive: [1] 91 % of control | [2] 101 % of control

O=C1CC(c2ccc(O)cc2)C2(O1)C(=O)OC(C(O)CO)C2O (centres undefined)
inactive: [3] 98 % of control | [4] 101 % of control | [5] 96 % of control

CCC(C)c1cccc(OP(=O)(CC(C)CC(C)(C)C)Oc2ccccc2C(C)CC)c1 (centres undefined)
inactive: dose: 50.0 mg/kg/injection, schedule: Q01DX001 (ip), vehicle: acetone 94 % of control | dose: 100.0 mg/kg/injection, schedule: Q01DX001 (ip), vehicle: acetone 94 % of control | dose: 200.0 mg/kg/injection, schedule: Q01DX001 (ip), vehicle: acetone 93 % of control

CN(C)C(=O)C1C2CCC(C3CC32)C1C(=O)N(C)C (centres undefined)
inactive: dose: 75.0 mg/kg/injection, schedule: Q01DX009 (ip), vehicle: saline 95 % of control | [6] 106 % of control | dose: 150.0 mg/kg/injection, schedule: Q01DX009 (ip), vehicle: saline 97 % of control | [7] 106 % of control | dose: 300.0 mg/kg/injection, schedule: Q01DX009 (ip), vehicle: saline 95 % of control | [8] 103 % of control

CC1CCN(C(=O)NCCCCCCNC(=O)N2CCC(C)CC2)CC1
inactive: dose: 100.0 mg/kg/injection, schedule: Q01DX009 (ip), vehicle: Klucel (hydroxypropylcellulose) (HPC) 100 % of control | dose: 200.0 mg/kg/injection, schedule: Q01DX009 (ip), vehicle: Klucel (hydroxypropylcellulose) (HPC) 97 % of control | dose: 400.0 mg/kg/injection, schedule: Q01DX009 (ip), vehicle: Klucel (hydroxypropylcellulose) (HPC) 90 % of control

CCCn1c(O)c(C(=O)CC)sc1=S
inactive: [9] 95 % of control | [10] 88 % of control

ClC(Cc1ccccc1)c1ccccc1 (centres undefined)
inactive: dose: 50.0 mg/kg/injection, schedule: Q01DX001 (ip), vehicle: saline 97 % of control | [3] 97 % of control | [4] 97 % of control | [5] 97 % of control

COc1ccc2c(n1)Sc1c(Cl)nc(N)nc1N2
inactive: dose: 100.0 mg/kg/injection, schedule: Q01DX001 (ip), vehicle: Klucel (hydroxypropylcellulose) (HPC) 97 % of control | dose: 200.0 mg/kg/injection, schedule: Q01DX001 (ip), vehicle: Klucel (hydroxypropylcellulose) (HPC) 97 % of control | dose: 400.0 mg/kg/injection, schedule: Q01DX001 (ip), vehicle: Klucel (hydroxypropylcellulose) (HPC) 98 % of control

Nc1nc2ncc(CNc3cnc(C(=O)NC(CCC(=O)O)C(=O)O)nc3)nc2c(=O)[nH]1 (centres undefined)
inactive: dose: 50.0 mg/kg/injection, schedule: Q01DX009 (ip), vehicle: alkali diluted with saline 107 % of control | dose: 100.0 mg/kg/injection, schedule: Q01DX001 (ip), vehicle: saline with Tween-80 103 % of control | dose: 200.0 mg/kg/injection, schedule: Q01DX001 (ip), vehicle: saline with Tween-80 112 % of control

CC1OC(CO)C(O)C(O)C1NC(=O)c1ccccc1 (centres undefined)
inactive: [9] 98 % of control | [10] 103 % of control | [11] 103 % of control

Cc1ccc2ccccc2c1OC(C)C(=O)O (centres undefined)
inactive: [9] 108 % of control | [10] 95 % of control | dose: 100.0 mg/kg/injection, schedule: Q04DX003 (ip), vehicle: alcohol 95 % of control | [11] 113 % of control | dose: 200.0 mg/kg/injection, schedule: Q04DX003 (ip), vehicle: alcohol 93 % of control

CCOP(=O)(OCC)Oc1cc(C)c(N(C)C)c(C)c1
inactive: [1] 101 % of control | [2] 90 % of control

CCCC1(CCC)c2ccccc2C(CCl)(OCC)c2ccccc21
inactive: dose: 100.0 mg/kg/injection, schedule: Q01DX009 (ip), vehicle: other 91 % of control | dose: 100.0 mg/kg/injection, schedule: Q04DX003 (ip), vehicle: other 100 % of control | dose: 200.0 mg/kg/injection, schedule: Q01DX009 (ip), vehicle: other 88 % of control | dose: 200.0 mg/kg/injection, schedule: Q04DX003 (ip), vehicle: other 103 % of control | dose: 400.0 mg/kg/injection, schedule: Q01DX009 (ip), vehicle: other 92 % of control | dose: 400.0 mg/kg/injection, schedule: Q04DX003 (ip), vehicle: other 95 % of control

O=C(C(Br)c1ccccc1)C(Br)c1ccccc1 (centres undefined)
inactive: dose: 6.25 mg/kg/injection, schedule: Q01DX009 (ip), vehicle: saline with Tween-80 104 % of control | dose: 12.5 mg/kg/injection, schedule: Q01DX009 (ip), vehicle: saline with Tween-80 98 % of control and 107 % of control | [12] 96 % of control | dose: 25.0 mg/kg/injection, schedule: Q01DX009 (ip), vehicle: saline with Tween-80 100 % of control and 110 % of control | [13] 90 % of control | [9] 102 % of control | [14] 101 % of control

Nc1nc(N)c(-c2ccc(Cl)cc2)c(CN2C(=O)c3ccccc3C2=O)n1
inactive: dose: 75.0 mg/kg/injection, schedule: Q01DX001 (ip), vehicle: Klucel (hydroxypropylcellulose) (HPC) 97 % of control | dose: 150.0 mg/kg/injection, schedule: Q01DX001 (ip), vehicle: Klucel (hydroxypropylcellulose) (HPC) 92 % of control | dose: 300.0 mg/kg/injection, schedule: Q01DX001 (ip), vehicle: Klucel (hydroxypropylcellulose) (HPC) 92 % of control

O=C(OCCN1CCCCC1)C(O)C1CCCCC1 (centres undefined)
inactive: [6] 101 % of control | [7] 103 % of control

C[CH2][Sn]([Cl])([CH2]C)[O][Sn]([Cl])([CH2]C)[CH2]C
inactive: dose: 3.12 mg/kg/injection, schedule: Q04DX003 (ip), vehicle: saline with Tween-80 100 % of control | dose: 6.25 mg/kg/injection, schedule: Q04DX003 (ip), vehicle: saline with Tween-80 100 % of control | [12] 106 % of control

CCN(CC)CCNCCO
inactive: dose: 100.0 mg/kg/injection, schedule: Q01DX009 (ip), vehicle: saline 89 % of control | [6] 95 % of control | dose: 200.0 mg/kg/injection, schedule: Q01DX009 (ip), vehicle: saline 94 % of control | [7] 92 % of control | dose: 400.0 mg/kg/injection, schedule: Q01DX009 (ip), vehicle: saline 89 % of control | [8] 92 % of control

CCOC(=O)N/N=C/c1ccc([N+](=O)[O-])cc1
inactive: [3] 94 % of control | [4] 98 % of control | [5] 102 % of control

CC(C)(C)OC(=O)NOc1ccc([N+](=O)[O-])cc1[N+](=O)[O-]
inactive: dose: 2.0 mg/kg/injection, schedule: Q01DX009 (ip), vehicle: saline with Tween-80 95 % of control | dose: 4.0 mg/kg/injection, schedule: Q01DX009 (ip), vehicle: saline with Tween-80 106 % of control | dose: 8.0 mg/kg/injection, schedule: Q01DX009 (ip), vehicle: saline with Tween-80 107 % of control | dose: 16.0 mg/kg/injection, schedule: Q01DX009 (ip), vehicle: saline with Tween-80 101 % of control | [13] 105 % of control | [14] 92 % of control | dose: 75.0 mg/kg/injection, schedule: Q01DX001 (ip), vehicle: carboxymethylcellulose (CMC) 96 % of control | dose: 100.0 mg/kg/injection, schedule: Q04DX003 (ip), vehicle: saline with Tween-80 88 % of control

CC1(N2CCCC2)CCCCC1
inactive: dose: 50.0 mg/kg/injection, schedule: Q01DX001 (ip), vehicle: carboxymethylcellulose (CMC) 94 % of control | dose: 100.0 mg/kg/injection, schedule: Q01DX001 (ip), vehicle: carboxymethylcellulose (CMC) 99 % of control

c1ccc2c(c1)ccc1oc3ccc4ccccc4c3c12
inactive: dose: 18.75 mg/kg/injection, schedule: Q04DX003 (ip), vehicle: Klucel (hydroxypropylcellulose) (HPC) 97 % of control | dose: 37.5 mg/kg/injection, schedule: Q04DX003 (ip), vehicle: Klucel (hydroxypropylcellulose) (HPC) 97 % of control and 98 % of control | dose: 75.0 mg/kg/injection, schedule: Q04DX003 (ip), vehicle: Klucel (hydroxypropylcellulose) (HPC) 101 % of control and 103 % of control | dose: 100.0 mg/kg/injection, schedule: Q04DX003 (ip), vehicle: Klucel (hydroxypropylcellulose) (HPC) 103 % of control | dose: 150.0 mg/kg/injection, schedule: Q04DX003 (ip), vehicle: Klucel (hydroxypropylcellulose) (HPC) 104 % of control | dose: 200.0 mg/kg/injection, schedule: Q04DX003 (ip), vehicle: Klucel (hydroxypropylcellulose) (HPC) 97 % of control | dose: 400.0 mg/kg/injection, schedule: Q04DX003 (ip), vehicle: Klucel (hydroxypropylcellulose) (HPC) 101 % of control

C[N+](C)(CCCN1C(=O)c2cccc3c(Br)ccc(c23)C1=O)Cc1ccc(Cl)c(Cl)c1
inactive: dose: 100.0 mg/kg/injection, schedule: Q01DX001 (ip), vehicle: other 98 % of control | dose: 200.0 mg/kg/injection, schedule: Q01DX001 (ip), vehicle: other 96 % of control | dose: 400.0 mg/kg/injection, schedule: Q01DX001 (ip), vehicle: other 93 % of control

— PubChem BioAssay AID248 (DTP/NCI, 2004)
